Measurements reported in ChEMBL document CHEMBL5036320, “Discovery of Icenticaftor (QBW251), a Cystic Fibrosis Transmembrane Conductance Regulator Potentiator with Clinical Efficacy in Cystic Fibrosis and Chronic Obstructive Pulmonary Disease” (J Med Chem, 2021).
In brackets after ≈: the same amount, converted by molar mass.

How the values were obtained:
[1] = Solubility of the compound at pH 6.8; format: physicochemical; settings: buffer
[2] = target: T1, Cystic fibrosis transmembrane conductance regulator (Homo sapiens, UniProt P13569, F508DEL); assay: Potentiation of CFTR F508del mutant (unknown origin) expressed in CHO cells assessed as chloride transport by measuring membrane potential incubated for 5 to 30 mins in presence of forskolin by Quattro assay; format: cell-based
[3] = tested on: Cystic fibrosis transmembrane conductance regulator (Homo sapiens), P13569 [F508del]; assay: Potentiation of CFTR F508del mutant (unknown origin) expressed in CHO cells assessed as chloride transport by measuring membrane potential incubated for 5 to 30 mins in presence of forskolin by Quattro assay relative to PG-01; format: cell-based; parameters: concentration or dose not given beside the values; settings: time 5-30 min
[4] = Plasma Protein binding in Sprague-Dawley rat at 5 uM incubated for 4 hrs by rapid equilibrium dialysis; format: ADME, cell-free; settings: read-out: PPB (converted)
[5] = Clearance in Sprague-Dawley rat at 5 mg/kg, po or 0.5 mg/kg, iv measured upto 48 hrs by LC-MS/MS analysis; format: ADME, organism-based; settings: in vivo
[6] = Volume of distribution at steady state in Sprague-Dawley rat at 5 mg/kg, po or 0.5 mg/kg, iv measured upto 48 hrs by LC-MS/MS analysis; format: ADME, organism-based; settings: in vivo, read-out: Vdss
[7] = Mean residence time in Sprague-Dawley rat at 5 mg/kg, po or 0.5 mg/kg, iv measured upto 48 hrs by LC-MS/MS analysis; format: ADME, organism-based; settings: in vivo
[8] = Oral bioavailability in Sprague-Dawley rat at 5 mg/kg measured upto 48 hrs by LC-MS/MS analysis; format: ADME, organism-based; settings: in vivo
[9] = target: T1, Cystic fibrosis transmembrane conductance regulator; assay: Potentiation of CFTR F508del mutant (unknown origin) expressed in CHO cells assessed as chloride transport by measuring membrane potential preincubated for 5 mins followed by forskolin addition by FLIPR assay; format: cell-based
[10] = tested on: Cystic fibrosis transmembrane conductance regulator (Homo sapiens), P13569 [F508del]; assay: Potentiation of CFTR F508del mutant (unknown origin) expressed in CHO cells assessed as chloride transport by measuring membrane potential preincubated for 5 mins followed by forskolin addition by FLIPR assay relative to PG-01; format: cell-based; settings: filed as activator
[11] = target: T1, Cystic fibrosis transmembrane conductance regulator; assay: Potentiation of CFTR F508del mutant (unknown origin) expressed in FRT cells assessed as chloride transport by measuring membrane potential in presence of forskolin; format: cell-based
[12] = tested on: Cystic fibrosis transmembrane conductance regulator (Homo sapiens), P13569 [F508del]; assay: Potentiation of CFTR F508del mutant (unknown origin) expressed in FRT cells assessed as chloride transport by measuring membrane potential in presence of forskolin relative to PG-01; format: cell-based; settings: filed as activator
[13] = target: T2, Cystic fibrosis transmembrane conductance regulator (Homo sapiens, UniProt P13569); assay: Potentiation of wild-type CFTR (unknown origin) expressed in FRT cells assessed as chloride transport by measuring membrane potential in presence of forskolin; format: cell-based
Target sequence in this assay (P13569 whole entry): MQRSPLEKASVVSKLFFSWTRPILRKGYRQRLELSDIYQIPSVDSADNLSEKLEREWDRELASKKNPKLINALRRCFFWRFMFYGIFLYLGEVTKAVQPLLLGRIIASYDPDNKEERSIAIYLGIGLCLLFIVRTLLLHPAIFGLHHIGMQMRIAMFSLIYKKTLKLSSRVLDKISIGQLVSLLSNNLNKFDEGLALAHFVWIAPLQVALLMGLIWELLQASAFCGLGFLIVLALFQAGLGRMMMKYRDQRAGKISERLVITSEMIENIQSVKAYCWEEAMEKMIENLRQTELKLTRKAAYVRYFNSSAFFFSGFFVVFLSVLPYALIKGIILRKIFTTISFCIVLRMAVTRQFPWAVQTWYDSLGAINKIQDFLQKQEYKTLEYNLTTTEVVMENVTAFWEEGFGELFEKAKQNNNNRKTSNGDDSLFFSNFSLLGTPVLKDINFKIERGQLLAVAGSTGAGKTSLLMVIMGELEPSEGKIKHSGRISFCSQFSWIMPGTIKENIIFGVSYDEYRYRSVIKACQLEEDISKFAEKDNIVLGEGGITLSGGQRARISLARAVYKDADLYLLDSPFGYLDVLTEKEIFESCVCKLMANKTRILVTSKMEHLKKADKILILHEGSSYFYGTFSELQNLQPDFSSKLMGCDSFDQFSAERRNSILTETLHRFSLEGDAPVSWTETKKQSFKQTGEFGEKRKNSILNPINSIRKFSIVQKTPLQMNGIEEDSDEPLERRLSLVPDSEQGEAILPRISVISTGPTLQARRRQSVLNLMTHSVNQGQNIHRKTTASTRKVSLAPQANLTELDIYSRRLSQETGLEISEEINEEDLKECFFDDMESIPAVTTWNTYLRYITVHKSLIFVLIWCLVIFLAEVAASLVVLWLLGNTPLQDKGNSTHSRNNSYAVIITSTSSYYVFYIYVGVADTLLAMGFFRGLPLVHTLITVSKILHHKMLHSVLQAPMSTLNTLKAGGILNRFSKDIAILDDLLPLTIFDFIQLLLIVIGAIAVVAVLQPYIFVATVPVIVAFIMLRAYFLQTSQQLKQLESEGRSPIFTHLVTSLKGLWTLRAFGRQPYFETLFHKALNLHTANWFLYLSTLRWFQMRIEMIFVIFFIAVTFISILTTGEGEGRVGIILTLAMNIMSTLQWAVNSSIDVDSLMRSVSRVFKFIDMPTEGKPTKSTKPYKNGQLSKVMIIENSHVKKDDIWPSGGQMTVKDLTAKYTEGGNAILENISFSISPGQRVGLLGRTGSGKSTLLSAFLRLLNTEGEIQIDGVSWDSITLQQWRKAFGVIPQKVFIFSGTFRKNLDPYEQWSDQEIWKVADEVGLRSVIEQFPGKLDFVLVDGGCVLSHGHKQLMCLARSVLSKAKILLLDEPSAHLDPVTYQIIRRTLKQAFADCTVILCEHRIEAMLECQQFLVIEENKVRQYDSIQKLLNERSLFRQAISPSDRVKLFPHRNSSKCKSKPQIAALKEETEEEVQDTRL

[14] = target: T2, Cystic fibrosis transmembrane conductance regulator; assay: Potentiation of wild-type CFTR (unknown origin) expressed in FRT cells assessed as chloride transport by measuring membrane potential in presence of forskolin relative to PG-01; format: cell-based; settings: filed as activator
Target sequence in this assay (P13569 whole entry, looked up): as the sequence (P13569 whole entry) above

[15] = Oral bioavailability in Sprague-Dawley rat at 3 mg/kg measured upto 48 hrs by LC-MS/MS analysis; format: ADME, organism-based; settings: in vivo
[16] = Cmax in Sprague-Dawley rat at 3 mg/kg, po and 1 mg/kg, iv measured upto 48 hrs by LC-MS/MS analysis; format: ADME, organism-based; parameters: dose 3 mg/kg, time <=48; settings: in vivo
[17] = Unbound Cmax in Sprague-Dawley rat at 3 mg/kg, po and 1 mg/kg, iv measured upto 48 hrs by LC-MS/MS analysis; format: ADME, organism-based; settings: in vivo
[18] = Volume of distribution in Sprague-Dawley rat at 3 mg/kg, po and 1 mg/kg, iv measured upto 48 hrs by LC-MS/MS analysis; format: ADME, organism-based; settings: in vivo
[19] = Mean residence time in Sprague-Dawley rat at 3 mg/kg, po and 1 mg/kg, iv measured upto 48 hrs by LC-MS/MS analysis; format: ADME, organism-based; settings: in vivo
[20] = Plasma Protein binding in human incubated for 4 hrs by equilibrium dialysis method; format: ADME, cell-free; settings: read-out: PPB (converted)
[21] = target: Cystic fibrosis transmembrane conductance regulator (Homo sapiens, UniProt P13569, G551D); assay: Potentiation of CFTR G551D mutant (unknown origin) expressed in FRT cells assessed as chloride transport by measuring membrane potential in presence of forskolin; format: cell-based
[22] = tested on: Cystic fibrosis transmembrane conductance regulator (Homo sapiens), P13569 [G551D]; assay: Potentiation of CFTR G551D mutant (unknown origin) expressed in FRT cells assessed as chloride transport by measuring membrane potential in presence of forskolin relative to PG-01; format: cell-based; settings: filed as activator
[23] = target: T1, Cystic fibrosis transmembrane conductance regulator; assay: Potentiation of CFTR F508 deletion mutant (unknown origin) expressed in HBE cells assessed as change in short circuit current in presence of forskolin and amiloride; format: cell-based
[24] = tested on: Cystic fibrosis transmembrane conductance regulator (Homo sapiens), P13569 [F508del]; assay: Potentiation of CFTR F508 deletion mutant (unknown origin) expressed in HBE cells assessed as change in short circuit current in presence of forskolin and amiloride relative to PG-01; format: cell-based; settings: filed as activator
[25] = Drug metabolism in Sprague-Dawley rat bile assessed as glutathione adduct M8 formation at 1 mg/kg, po after 24 hrs by LC MS/MS analysis; format: ADME, organism-based; settings: in vivo
[26] = Drug metabolism in Sprague-Dawley rat bile assessed as glutathione adduct M9 formation at 1 mg/kg, po after 24 hrs by LC MS/MS analysis; format: ADME, organism-based; settings: in vivo
[27] = Toxicity in Wistar Han rat assessed as NOAEL; settings: in vivo, dose 10 mg/kg
[28] = Clearance in Sprague-Dawley rat at 3 mg/kg, po and 1 mg/kg, iv measured upto 48 hrs by LC MS/MS analysis; format: ADME, organism-based; settings: in vivo

T1 sequence (P13569 as listed by the source): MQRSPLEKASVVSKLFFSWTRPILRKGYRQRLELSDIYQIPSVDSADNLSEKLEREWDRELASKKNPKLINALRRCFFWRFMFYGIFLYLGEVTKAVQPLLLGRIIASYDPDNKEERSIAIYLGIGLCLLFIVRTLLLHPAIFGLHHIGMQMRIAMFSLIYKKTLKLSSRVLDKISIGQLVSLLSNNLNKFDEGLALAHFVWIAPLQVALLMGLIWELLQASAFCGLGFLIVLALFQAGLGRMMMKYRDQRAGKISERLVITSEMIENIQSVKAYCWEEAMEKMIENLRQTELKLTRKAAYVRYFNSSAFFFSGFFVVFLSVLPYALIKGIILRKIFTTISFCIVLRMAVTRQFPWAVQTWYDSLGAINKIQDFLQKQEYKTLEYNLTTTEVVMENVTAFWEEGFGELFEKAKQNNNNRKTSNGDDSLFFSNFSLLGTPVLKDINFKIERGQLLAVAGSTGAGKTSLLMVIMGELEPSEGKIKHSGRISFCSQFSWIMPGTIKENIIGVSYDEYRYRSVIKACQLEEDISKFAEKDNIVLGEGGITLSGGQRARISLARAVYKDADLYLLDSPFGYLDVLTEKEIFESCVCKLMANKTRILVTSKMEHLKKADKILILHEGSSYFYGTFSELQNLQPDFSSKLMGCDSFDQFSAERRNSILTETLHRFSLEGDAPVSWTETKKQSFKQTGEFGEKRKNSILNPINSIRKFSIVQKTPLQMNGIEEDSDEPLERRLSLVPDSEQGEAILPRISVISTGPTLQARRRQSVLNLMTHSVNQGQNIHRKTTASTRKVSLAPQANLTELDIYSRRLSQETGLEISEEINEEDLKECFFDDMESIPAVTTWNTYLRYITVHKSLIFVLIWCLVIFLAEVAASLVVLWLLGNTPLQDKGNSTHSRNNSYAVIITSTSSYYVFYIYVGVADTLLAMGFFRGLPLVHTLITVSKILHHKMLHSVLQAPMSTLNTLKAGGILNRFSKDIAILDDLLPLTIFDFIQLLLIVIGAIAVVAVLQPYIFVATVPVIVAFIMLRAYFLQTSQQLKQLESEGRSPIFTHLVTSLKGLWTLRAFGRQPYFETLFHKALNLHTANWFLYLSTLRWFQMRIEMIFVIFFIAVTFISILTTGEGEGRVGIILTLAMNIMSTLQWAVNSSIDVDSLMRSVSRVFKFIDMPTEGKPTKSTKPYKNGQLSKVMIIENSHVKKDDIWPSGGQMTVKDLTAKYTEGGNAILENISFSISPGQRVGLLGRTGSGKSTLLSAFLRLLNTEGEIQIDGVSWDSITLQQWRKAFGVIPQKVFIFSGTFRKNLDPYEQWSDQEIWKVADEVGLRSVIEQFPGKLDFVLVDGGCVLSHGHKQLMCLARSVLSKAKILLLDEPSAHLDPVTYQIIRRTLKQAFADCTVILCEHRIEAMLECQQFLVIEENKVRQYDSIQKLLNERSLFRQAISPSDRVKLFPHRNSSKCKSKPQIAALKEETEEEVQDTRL
Sequence of Cystic fibrosis transmembrane conductance regulator (Homo sapiens), P13569 [F508del] (P13569 as listed by the source): as above
Sequence of Cystic fibrosis transmembrane conductance regulator (Homo sapiens), P13569 [G551D] (P13569 whole entry G551D): as the sequence (P13569 whole entry) above, with G551D counted along it
Sequence of Cystic fibrosis transmembrane conductance regulator (Homo sapiens, UniProt P13569, G551D) (P13569 whole entry G551D): as the sequence (P13569 whole entry) above, with G551D counted along it

solubility [1] [µg/mL]	EC50 [2] [nM]	Activity ([3]; filed as activator) [%]	SMILES	further results
13 (≈ 36.1 µM)	276	–	CNc1nc(C(=O)NCC(C)(O)C(F)(F)F)c(N)cc1C(F)(F)F (stereo in doubt; 30a)	–
–	–	101	CCc1nc(C(=O)NCC(C)(O)C(F)(F)F)c(N)cc1C(F)(F)F (stereo in doubt; 28b) [listing 1 of 2 here]	–
–	229	78	CC(O)(CNC(=O)c1ncc(C(F)(F)F)cc1N)C(F)(F)F (racemic)	–
–	111	–	CNc1nc(C(=O)NCC(C)(O)C(F)(F)F)c(N)cc1C(F)(F)F (stereo in doubt; 30b)	–
< 1	78	93	COC(=O)c1cc(-c2ccco2)c(C(F)(F)F)cc1N	fraction unbound at 4 h, 5 µM [4]: 0.005; clearance [5]: 30 mL/min/kg; Vd [6]: 0.4 L/kg; MRT [7]: 0.2 h; bioavailability [8]: 15%; EC50 [9]: 920 nM; Activity [10]: 154%; EC50 [11]: 180 nM; Activity [12]: 100%; EC50 [13]: 30000 nM; Activity [14]: 206%
–	240	99	Cc1nc(C(=O)NCC(C)(O)C(F)(F)F)c(N)cc1C(F)(F)F (racemic)	–
–	–	88	O=c1c(-c2ccc(O)cc2)coc2cc(O)cc(O)c12	Activity [10]: 83%; Activity [12]: 54%; Activity [14]: 138%
60 (≈ 160 µM)	15	116	CCOc1nc(C(=O)NC[C@](C)(O)C(F)(F)F)c(N)cc1C(F)(F)F	–
140 (≈ 341 µM)	15	107	C[C@](O)(CNC(=O)c1nc(Br)c(C(F)(F)F)cc1N)C(F)(F)F	fraction unbound at 4 h, 5 µM [4]: 0.031; bioavailability [15]: 114%; Cmax [16]: 634 nM; fCmax [17]: 25 nM; Vd [18]: 6.5 L/kg; MRT [19]: 6.4 h; fraction unbound at 4 h [20]: 0.025; EC50 [11]: 18 nM; Activity [12]: 106%; EC50 [13]: 43 nM; Activity [14]: 140%; EC50 [21]: 150 nM; Activity [22]: 67%; EC50 [23]: 25 nM; Activity [24]: 113%; Drug metabolism [25]: Metabolite_Detected; Drug metabolism [26]: Metabolite_Detected; NOAEL [27]: < 10 mg/kg; clearance [28]: 17 mL/min/kg
–	43	–	CCc1nc(C(=O)NCC(C)(O)C(F)(F)F)c(N)cc1C(F)(F)F (stereo in doubt; 28b) [listing 2 of 2 here]	–
< 1	3780	72	COC(=O)c1ccc(C(F)(F)F)cc1N	–
–	–	100	CCc1nc(C(=O)NCC(C)(O)C(F)(F)F)c(N)cc1C(F)(F)F (stereo in doubt; 28a)	–
165 (≈ 441 µM)	20	–	CN(C)c1nc(C(=O)NCC(C)(O)C(F)(F)F)c(N)cc1C(F)(F)F (stereo in doubt; 31a)	–
49 (≈ 129 µM)	40	132	Nc1cc(C(F)(F)F)c(Br)nc1C(=O)NCCC(F)(F)F	–
120 (≈ 351 µM)	70	79	CC(O)CNC(=O)c1nc(Br)c(C(F)(F)F)cc1N (racemic)	–
–	–	93	CN(C)c1nc(C(=O)NCC(C)(O)C(F)(F)F)c(N)cc1C(F)(F)F (stereo in doubt; 31b)	–
–	250	97	CNC(=O)c1nc(Br)c(C(F)(F)F)cc1N	–
28 (≈ 78.6 µM)	77	101	CC(C)(O)CNC(=O)c1nc(Br)c(C(F)(F)F)cc1N	–
–	30000	–	CN(C)C(=O)c1cc(-c2ccco2)c(C(F)(F)F)cc1N	Activity [3]: 37%
